# According to patent US20190111107A1, “METHODS FOR MODULATING INTESTINAL MICROBIOTA” (DEFENSIN THERAPEUTICS APS, priority 2016, published 2019):
# “Also recorded” adds a separate entry of the source. Positions of bridges follow the written chain, without caps; N, C: chain ends. No end group written: not given here.
# Columns and labels:
# [1] = system: isolated hepatocytes; conditions: Liu et al. (2008); cited from earlier work
# [2] = system: diet-induced obese mice; assay: Interventional treatment with defensins in diet-induced obese mice: weight, fat percentage, glucose homeostasis; assay type: in vivo, C57/BL/6J mice; conditions: for fat percentage / change in fat percentage compared with HFD control: 4 weeks after dietary intervention; for Glucose Tolerance Test after start of intervention: OGTT repeated biweekly from week 13-0; for Insulin Tolerance Test: insulin sensitivity compared with HFD control group: week 9, p<0.05
# From the text: FIG. 1B. Schematic outline of the experimental set up for investigating the effects of mammalian alfa and/or beta defensins on mice metabolism. At week −1, the C57/BL/6J mice arrived. At week 0 feces was collected. During run-in between week 0 and week 12 the mice were fed a high fat diet. At week 12 the mice were clinically examined by magnetic resonance scan to estimate fat distribution, feces was collected and oral glucose tolerance test (OGTT) and glucose-stimulated insulin secretion (GSIS) performed. At week 13-0 the mice were divided in groups and cages with 4 mice percage and 3 cages per group. At week 0, 12 and 13-10, the microbiome of the faeces was analysed. At week 13-2, 13-4, 13-6, 13-8 and 13-10 the mice were scanned and blood glucose and insulin levels were measured. At week 13-9, insulin tolerance test (ITT) was conducted. At week 13-10 (termination), several analyses were conducted, in particular the mice were weighed and scanned, and plasma composition and microbiota composition of colon, cecum and small intestine were assessed. In addition, iWAT, eWAT and liver weight were measured.
# Mice and diets. The experiment elucidates the effect of hBD-2 and HD5 in the treatment of metabolic syndrome (MetS) in diet-induced obese mice. A run-in period of 13 weeks where mice were fed a very HFD (60% energy from fat) preceded the intervention. Only mice meeting the criteria of a minimum of 12 gram weight gain (approximately 50% of initial bodyweight) during the run-in period were included in the final analyses. […] They were exposed to all experimental tests, but excluded from the analyses.
# Treatment regimen (FIG. 1B). Before the intervention all mice were MR scanned and an OGTT was performed. Cages of mice were allocated to experimental groups based on their fat mass. All subsequent measures were paired with data from the same mouse before the intervention.
# A LFD (low fat diet) reference group was running in parallel. As controls for the intervention 2 additional groups were included: 1 very HFD and 1 LFD. Experimental mice stayed on the very HFD during the intervention. The mice were on the experimental diet for 10 weeks. They were co-housed throughout the experiment, 4 mice per cage, 3 cages per group. All tests ran over 3 days, 1 cage per group per day.
# [3] = Pharmacokinetic study of hBD-2 after single oral gavage; assay type: in vivo, female NMRI mice
# Protocol: FIG. 28. Pharmacokinetic data following oral administration of 4 mg/kg hBD-2 to female NMRI mice. […] The results are given as group mean +/−SEM.
# Pharmacokinetic study to determine oral bioavailability and establish pharmacokinetic profile of hBD-2 following single oral gavage of 4 mg/kg administration to NMRI mice.
# Treatment regimen: 21 female NMRI mice were dosed by oral gavage 5 ml/kg using a gavage tube and a 1 ml syringe according to the individual body weight obtained on the day of dosing. Urine was strived sampled at random time points by gently massaging the inguinal area of the abdomen. The first blood sample was taken using a submandibular sampling method. The second blood sample was collected from Isoflurane anaesthetised mice. Intestinal samples were taken after euthanasia. The abdomen of each mouse was opened and three sections (jejunum, duodenum, and colon) of the intestines were sampled.
# [4] = system: mice fed a high fat diet; assay: Prophylactic treatment with defensins in mice fed a high fat diet: weight, lean/fat mass, glucose homeostasis; assay type: in vivo, C57/BL/6J mice; conditions: for weight gain compared with HFD reference group: 10 week study, defensin in HFD, 1,2mg hBD2 per kg mouse per day, HD5 equimolar; for visceral fat (eWAT) compared with HFD group / liver weight: at termination; for liver weight: vs HFD and LFD groups; for glucose-stimulated insulin secretion compared with HFD control mice: during the glucose challenge; for Glucose Tolerance test compared with HFD group: oral glucose tolerance test; for HOMA-IR index compared with HFD group: week 9
# Protocol: Schematic outline of the experimental set up for investigating the effects of mammalian alfa and/or beta defensins on mice metabolism. At week −1, the C57/BL/6J mice were divided in groups and cages, so that there were 3 mice per cage and cages per group. Between week −1 and 0, the mice were clinically examined by magnetic resonance scan to estimate fat distribution. […] At week 4, in addition to analysis of the microbiota, the mice were scanned and blood glucose and insulin levels were measured. […] At week 7, insulin tolerance test (ITT) was conducted. At week 8, oral glucose tolerance test (OGTT) and glucose-stimulated insulin secretion (GSIS) were conducted. At week 9 (termination), several analyses were conducted, in particular the mice were weighed and scanned, and plasma composition and microbiota composition of colon, cecum and small intestine were assessed.
# Mice: Mice were housed in trios, 4 cages per group. Feed intake was registered daily just before lights were turned off (6 pm). Individual mice were subjected to experimental procedures in altered order both group and cage wise. Mice were kept at room temperature under a 12-hour light/dark cycle at SPF standard conditions.
# Diets: For dosing, the average weight was estimated to be 25 grams per mouse. They eat approximately 3 grams of feed per mouse per day.
# Treatment regime (FIG. 1A): Mice were fed either a high fat diet (HFD) or a low fat (LF) control diet. The HFD contains 4 subgroups; 1 hBD2, 1 HD5, 1 hBD2/HD5 and 1 standard HFD without supplementation of defensins. Defensin concentration is 1,2mg hBD2 per kg mouse per day. HD5 is given in equimolar concentration to hBD2.
# [5] = system: Dextran Sodium Sulphate (DSS) induced colitis; assay: Acute 10-day Dextran Sodium Sulphate (DSS) induced colitis model, hBD-2-albumin fusion C-terminal; assay type: in vivo, mice; conditions: active control
# Protocol: To determine and assess the anti-inflammatory effect of “hBD-2-albumin fusion C-terminal” in an acute 10-day Dextran Sodium Sulphate (DSS) induced colitis model in mice.
# Treatment regimen: “hBD-2-albumin C-terminal” was administered intravenously via the tail vein or subcutaneously with the use of a sterile 25G needle in a dosing volume of 10 ml/kg body weight. The animals received 1 dose daily for 10 […] days. The active control Prednisolone (Pred) was given orally by gavage at a dose of 1 mg/kg in a dosing volume of 10 ml/kg body weight OD.
# [6] = system: intestinal microbiota; assay: Longitudinal 16S characterization of intestinal microbiota under prophylactic defensin treatment; assay type: in vivo, mice
# From the text: FIG. 21A and 21B. The figures illustrate changes from week 1 (Wk1) to week 10 (Wk10) for the four treatments in Example 1: High fat diet with HD5-HF HD5; high fat diet with hBD2−HD hBD2; High fat diet—no treatment: HF; Low fat diet: LF. Weighted unifrac analysis of microbiota at week 1 (21A) and week 10 (21 B) i.e. relative abundance of bacterial species. […] Abbreviations: Wk 1—week 1; W10—week 10.
# FIG. 21C. Illustration of the species of microbiota contributing to the change. […] Allobaculum is a short chain fatty acid producing species. Lactobacillus is a bacteria with anti-inflammatory properties.
# Microbial analyses were carried out to study the microbiota of the intestine. Longitudinal 16S characterization was conducted on 4 paired samples from 60 mice, 240 samples in total. Each mouse was sampled prior to diet change, 1 week post diet change, 4 weeks post diet change and at termination, thus ensuring a thorough characterization of the faecal microbiota as a result of defensin treatment.
compound,measurement,setting,value
"human neutrophil peptide 2 (CYCRIPACIAGERRYGTCIYQGRLWAFCC; ends and bridges not checked; cysteine pairing not given here; UniProt P59665 66-94, looked up) [HNP-2, α-defensin produced by leucocytes]",inhibition of glycogenolysis and gluconeogenesis,[1],able to inhibit glycogenolysis and gluconeogenesis in isolated hepatocytes
"GIGDPVTCLKSGAICHPVFCPRRYKQIGTCGLPGTKCCKKP (disulfide 8-37, 15-30, 20-38 (inferred)) [hBD-2, human beta defensin 2]",fat percentage / change in fat percentage compared with HFD control,[2],significantly smaller
same,Glucose Tolerance Test after start of intervention,[2],smaller peak in blood glucose as well as a faster clearance of glucose already after 2 weeks
same,obese and glucose intolerant mice that significantly improved their glucose tolerance,[2]; following 2 weeks of intervention,7/8
same,visceral fat (eWAT) at termination compared with HFD control,"[2]; mouse, in vivo",no significant difference in visceral fat (eWAT) between the HFD fed groups
same,weight gain the first 4 weeks post dietary intervention compared with standard HFD group,[2]; p=0.07,"tended to gain less weight the first 4 weeks post dietary intervention, although not significantly"
same,weight gain from week 4 to the end of the study period compared with standard HFD group,[2]; p=0.82,gained similar weight as the standard HFD group
same,Insulin Tolerance Test: insulin sensitivity compared with HFD control group,[2],more insulin sensitive compared to the HFD control group
same,share of the group with a smaller fat percentage than before the intervention,[2]; weeks 4 post dietary intervention,~75%
same,systemic availability after oral dosing,"[3]; 4 mg/kg oral, mice",not systemically available
same,time hBD2 remains detectable in the colon content after administration,[3]; oral 4 mg/kg,up to 360 minutes
same,weight gain compared with HFD reference group,[4],gained significantly less weight than the HFD reference group
same,share of defensin-fed mice with a Body Fat Percent resembling LFD reference mice,[4]; 60% HFD,50%
same,visceral fat mass of the best protected mice compared with LFD reference mice,[4]; 60% HFD,same or smaller visceral fat mass than LFD reference mic
same,lean mass gained at the end of the study compared with HFD group,[4]; HFD plus hBD-2 vs HFD,gained the same amount of lean mass
same,fat mass at the end of the study compared to the LFD group,"[4]; HFD plus hBD-2 vs LFD, p=0.25",trended towards increased fat mass compared to the LFD group
same,visceral fat (eWAT) compared with HFD group,[4],significantly less visceral fat (eWAT) than the HFD group
same,liver weight,[4],no statistical difference between the three groups in terms of liver weight
same,Glucose Stimulated Insulin Secretion: insulin concentration compared with LFD group,"[4]; during the GTT, week 7",higher but not significantly different insulin concentration than the LFD group; also recorded: higher but not significantly different insulin concentration from the LFD group
same,glucose-stimulated insulin secretion compared with HFD control mice,[4],glucose stimulated insulin response during the glucose challenge was improved
same,amount of fat mass gained by the HFD group compared to the HFD plus hBD-2 group,"[4]; first analysis, p=0.005",2 times
same,Insulin Tolerance test: compared with LFD reference group,"[4]; mouse, in vivo",no statistical significant difference between the LFD reference group and the HFD plus hBD-2 group
same,Insulin Tolerance test: insulin sensitivity compared with HFD group,"[4]; mouse, in vivo",significantly more sensitive to insulin than the HFD group
same,Glucose Tolerance test compared with HFD group,[4]; week 7,slightly prolonged glucose clearance but reached significantly lower glucose levels than the HFD group
same,Glucose Tolerance test compared with HFD group,"[4]; week 7, listed as hBD2",Glucose tolerance was markedly improved compared to HFD control mice
same,Five Hour Fasting insulin: HFD group compared with HFD plus hBD-2 group,[4]; p=0.057,borderline significantly higher fasting insulin than the HFD plus hBD-2 group
same,Five Hour Fasting insulin: LFD compared with HFD plus hBD-2 group,[4]; p=0.17,no significant difference between the LFD and HFD plus hBD-2 groups
same,amount of fat mass in percent of total body weight gained by the HFD group compared to the HFD plus hBD-2 group,"[4]; re-analysis, p=0.005",two times
same,HOMA-IR index compared with HFD group,[4],statistically significantly lower
human neutrophil peptide 1 [HNP-1],inhibition of glycogenolysis and gluconeogenesis,[1],able to inhibit glycogenolysis and gluconeogenesis in isolated hepatocytes
"C[C@]12C=CC(=O)C=C1CC[C@@H]1[C@@H]2[C@@H](O)C[C@@]2(C)[C@H]1CC[C@]2(O)C(=O)CO [Prednisolon, Prednisolone]",DAI,"[5]; 1 mg/kg orally by gavage daily, p<0.05",significant inhibition of the DAI on day 9
same,histological injury in the proximal part of the colon,[5]; 1 mg/kg orally daily,failed to significantly reduce histological injury in the proximal part of the colon
same,histological injury in the distal colon,"[5]; 1 mg/kg orally daily, p<0.01",did reduce the injury in the distal colon
human intestinal alpha defensin 5 (ATCYCRTGRCATRESLSGVCEISGRLYRLCCR; listed as Homo sapiens) [HD5],fat percentage / change in fat percentage compared with HFD control,[2],significantly lower fat percentage
same,fat percentage of total body weight over time,[2]; 10 weeks intervention,tendency of decreasing fat percentage
same,weight gain after dietary intervention compared with HFD control,[2]; 10 weeks on experimental diet,gained significantly less weight than the HFD control
same,Glucose Tolerance Test after start of intervention,[2],improved over time
same,visceral fat (eWAT) at termination compared with HFD control,"[2]; mouse, in vivo",not significantly different
same,weight of the liver at termination compared to the HFD control,"[2]; mouse, in vivo",tended to be decreased
same,Insulin Tolerance Test: insulin sensitivity compared with HFD control group,[2],more insulin sensitive than the HFD control
same,microflora composition (weighted unifrac analysis) relative to LFD and non-treated HFD groups,"[6]; after 10 weeks, oral HD5 in HFD",gradually approached the bacterial flora of mice fed a LFD; also recorded: partial normalization of the microflora
same,abundance of bacterial genera in the intestinal microbiota compared with non-treated HFD mice,[6]; at termination,increased abundance of Allobaculum and Lactobacillus and a decrease in abundance of Clostridium
same,weight gain compared with HFD reference group,[4],"gained less weight than HFD-fed control mice (FIG. 17A), although the effect was not statistically significant"
same,visceral fat (eWAT) compared with HFD group,[4],borderline less visceral fat
same,liver weight,[4],No statistically significant difference with respect to liver weight
same,glucose-stimulated insulin secretion compared with HFD control mice,[4],no significant improvement
same,Insulin Tolerance test: insulin sensitivity compared with HFD group,"[4]; mouse, in vivo",no significant improvement
same,fat % compared with HFD-fed control mice,"[4]; mouse, in vivo",borderline less fat %
same,feed efficiency compared with HFD-fed control mice,"[4]; mouse, in vivo",tendency towards lower feed efficiency
same,Glucose Tolerance test compared with HFD group,[4]; week 7,no significant improvement
same,HOMA-IR index compared with HFD group,[4],no significant improvement
